Assay results from ChEMBL document CHEMBL4002623, “Synthesis and in vitro activity of dicationic indolyl diphenyl ethers as novel potent antibiotic agents against drug-resistant bacteria” (Bioorg Med Chem Lett, 2017).
Values after ≈ are worked out from the molar mass of the structure shown.

Assays:
[1] = test system: Staphylococcus epidermidis; test: Antibacterial activity against methicillin-resistant Staphylococcus epidermidis 09-3 by agar dilution method; assay type: functional
Pseudomonas aeruginosa [2] = test: Antibacterial activity against Pseudomonas aeruginosa PAO1 by agar dilution method; assay type: functional
[3] = test system: Acinetobacter calcoaceticus; test: Antibacterial activity against Acinetobacter calcoaceticus ATCC 19606 by agar dilution method; assay type: functional
Klebsiella pneumoniae [4] = test: Antibacterial activity against extended-spectrum beta-lactamase-negative Klebsiella pneumoniae 7 by agar dilution method; assay type: functional
Staphylococcus aureus [5] = test: Antibacterial activity against methicillin-sensitive Staphylococcus aureus ATCC 29213 by agar dilution method; assay type: functional
Enterococcus faecalis [6] = test: Antibacterial activity against vancomycin-sensitive Enterococcus faecalis 09-8 by agar dilution method; assay type: functional
Klebsiella pneumoniae [7] = test: Antibacterial activity against extended-spectrum beta-lactamase-negative Klebsiella pneumoniae 09-8 by agar dilution method; assay type: functional
Citrobacter freundii = test: Antibacterial activity against Citrobacter freundii ATCC 43864 by agar dilution method; assay type: functional
Enterococcus faecalis [8] = test: Antibacterial activity against vancomycin-resistant Enterococcus faecalis ATCC 51299 by agar dilution method; assay type: functional
Enterococcus faecium [9] = test: Antibacterial activity against vancomycin-resistant Enterococcus faecium 05-8 by agar dilution method; assay type: functional
[10] = test system: Staphylococcus epidermidis; test: Antibacterial activity against methicillin-sensitive Staphylococcus epidermidis ATCC 12228 by agar dilution method; assay type: functional
Providencia rettgeri = test: Antibacterial activity against Providencia rettgeri ATCC 31052 by agar dilution method; assay type: functional
Staphylococcus aureus [11] = test: Antibacterial activity against methicillin-resistant Staphylococcus aureus 09-13 by agar dilution method; assay type: functional
Klebsiella pneumoniae [12] = test: Antibacterial activity against extended-spectrum beta-lactamase-positive Klebsiella pneumoniae 09-25 by agar dilution method; assay type: functional
[13] = Cytotoxicity against HEK293T cells after 48 hrs by MTS assay; assay type: cell-based, HEK-293T; conditions: human
Staphylococcus aureus [14] = test: Antibacterial activity against methicillin-resistant Staphylococcus aureus ATCC 33591 by agar dilution method; assay type: functional
Enterobacter cloacae = test: Antibacterial activity against Enterobacter cloacae 45301 by agar dilution method; assay type: functional
Escherichia coli [15] = test: Antibacterial activity against extended-spectrum beta-lactamase-negative Escherichia coli 09-20 by agar dilution method; assay type: functional
Serratia marcescens = test: Antibacterial activity against Serratia marcescens 41002 by agar dilution method; assay type: functional
Proteus vulgaris = test: Antibacterial activity against Proteus vulgaris ATCC 29905 by agar dilution method; assay type: functional
Salmonella typhi = test: Antibacterial activity against Salmonella typhi H901 by agar dilution method; assay type: functional, Salmonella enterica subsp. enterica serovar Typhi; conditions: Salmonella enterica
Staphylococcus aureus [16] = test: Antibacterial activity against methicillin-sensitive Staphylococcus aureus 15 by agar dilution method; assay type: functional
Enterococcus faecium [17] = test: Antibacterial activity against vancomycin-sensitive Enterococcus faecium 09-10 by agar dilution method; assay type: functional
Staphylococcus aureus [18] = test: Antibacterial activity against methicillin-sensitive Staphylococcus aureus 09-6 by agar dilution method; assay type: functional
Proteus mirabilis = test: Antibacterial activity against Proteus mirabilis 09-1 by agar dilution method; assay type: functional
Escherichia coli [19] = test: Antibacterial activity against extended-spectrum beta-lactamase-positive Escherichia coli 09-1 by agar dilution method; assay type: functional
Escherichia coli [20] = test: Antibacterial activity against extended-spectrum beta-lactamase-negative Escherichia coli 1515 by agar dilution method; assay type: functional
[21] = test system: Staphylococcus epidermidis; test: Antibacterial activity against methicillin-sensitive Staphylococcus epidermidis 09-9 by agar dilution method; assay type: functional
Pseudomonas aeruginosa [22] = test: Antibacterial activity against Pseudomonas aeruginosa ATCC 27853 by agar dilution method; assay type: functional
Pseudomonas aeruginosa [23] = test: Antibacterial activity against Pseudomonas aeruginosa 09-14 by agar dilution method; assay type: functional
Morganella morganii = test: Antibacterial activity against Morganella morganii ATCC 25830 by agar dilution method; assay type: functional
Klebsiella pneumoniae [24] = test: Antibacterial activity against Klebsiella pneumoniae ATCC BAA-2146 expressing NDM-1 by agar dilution method; assay type: functional
Escherichia coli [25] = test: Antibacterial activity against extended-spectrum beta-lactamase-negative Escherichia coli ATCC 25922 by agar dilution method; assay type: functional
Enterococcus faecalis [26] = test: Antibacterial activity against vancomycin-resistant Enterococcus faecalis 09-9 by agar dilution method; assay type: functional
Klebsiella aerogenes = test: Antibacterial activity against Enterobacter aerogenes 45102 by agar dilution method; assay type: functional
Enterococcus faecalis [27] = test: Antibacterial activity against vancomycin-sensitive Enterococcus faecalis ATCC 29212 by agar dilution method; assay type: functional
Enterococcus faecium [28] = test: Antibacterial activity against vancomycin-resistant Enterococcus faecium ATCC 700221 by agar dilution method; assay type: functional
Klebsiella pneumoniae [29] = test: Antibacterial activity against extended-spectrum beta-lactamase-positive Klebsiella pneumoniae ATCC 700603 by agar dilution method; assay type: functional

CCC(CC)NC(=N)c1ccc2cc(-c3ccc(Oc4ccc(-c5cc6ccc(C(=N)NC(CC)CC)cc6[nH]5)cc4)cc3)[nH]c2c1
MIC [1]: 1 µg/mL (≈ 1.6 µM) | MIC (Pseudomonas aeruginosa [2]): 32 µg/mL (≈ 51.2 µM) | MIC [3]: 16 µg/mL (≈ 25.6 µM) | MIC (Klebsiella pneumoniae [4]): 16 µg/mL (≈ 25.6 µM) | MIC (Staphylococcus aureus [5]): 2 µg/mL (≈ 3.2 µM) | MIC (Enterococcus faecalis [6]): 2 µg/mL (≈ 3.2 µM) | MIC (Klebsiella pneumoniae [7]): 16 µg/mL (≈ 25.6 µM) | MIC (Citrobacter freundii): 16 µg/mL (≈ 25.6 µM) | MIC (Enterococcus faecalis [8]): 4 µg/mL (≈ 6.4 µM) | MIC (Enterococcus faecium [9]): 4 µg/mL (≈ 6.4 µM) | MIC [10]: 0.5 µg/mL (≈ 0.8 µM) | MIC (Providencia rettgeri): 16 µg/mL (≈ 25.6 µM) | MIC (Staphylococcus aureus [11]): 2 µg/mL (≈ 3.2 µM) | MIC (Klebsiella pneumoniae [12]): 16 µg/mL (≈ 25.6 µM) | CC50 at 48 h [13]: 25.4 µg/mL (≈ 40.7 µM) | MIC (Staphylococcus aureus [14]): 2 µg/mL (≈ 3.2 µM) | MIC (Enterobacter cloacae): 16 µg/mL (≈ 25.6 µM) | MIC (Escherichia coli [15]): 16 µg/mL (≈ 25.6 µM) | MIC (Serratia marcescens): 16 µg/mL (≈ 25.6 µM) | MIC (Proteus vulgaris): 16 µg/mL (≈ 25.6 µM) | MIC (Salmonella typhi): 16 µg/mL (≈ 25.6 µM) | MIC (Staphylococcus aureus [16]): 2 µg/mL (≈ 3.2 µM) | MIC (Enterococcus faecium [17]): 4 µg/mL (≈ 6.4 µM) | MIC (Staphylococcus aureus [18]): 2 µg/mL (≈ 3.2 µM) | MIC (Proteus mirabilis): 32 µg/mL (≈ 51.2 µM) | MIC (Escherichia coli [19]): 16 µg/mL (≈ 25.6 µM) | MIC (Escherichia coli [20]): 32 µg/mL (≈ 51.2 µM) | MIC [21]: 2 µg/mL (≈ 3.2 µM) | MIC (Pseudomonas aeruginosa [22]): 16 µg/mL (≈ 25.6 µM) | MIC (Pseudomonas aeruginosa [23]): 32 µg/mL (≈ 51.2 µM) | MIC (Morganella morganii): 8 µg/mL (≈ 12.8 µM) | MIC (Klebsiella pneumoniae [24]): 16 µg/mL (≈ 25.6 µM) | MIC (Escherichia coli [25]): 16 µg/mL (≈ 25.6 µM) | MIC (Enterococcus faecalis [26]): 8 µg/mL (≈ 12.8 µM) | MIC (Klebsiella aerogenes): 16 µg/mL (≈ 25.6 µM) | MIC (Enterococcus faecalis [27]): 4 µg/mL (≈ 6.4 µM) | MIC (Enterococcus faecium [28]): 2 µg/mL (≈ 3.2 µM) | MIC (Klebsiella pneumoniae [29]): 16 µg/mL (≈ 25.6 µM)

N=C(NC1CCCCC1)c1ccc2cc(-c3ccc(Oc4ccc(-c5cc6ccc(C(=N)NC7CCCCC7)cc6[nH]5)cc4)cc3)[nH]c2c1
MIC [1]: 2 µg/mL (≈ 3.08 µM) | MIC (Pseudomonas aeruginosa [2]): > 128 µg/mL | MIC [3]: 64 µg/mL (≈ 98.6 µM) | MIC (Klebsiella pneumoniae [4]): 128 µg/mL (≈ 197 µM) | MIC (Staphylococcus aureus [5]): 4 µg/mL (≈ 6.16 µM) | MIC (Enterococcus faecalis [6]): 4 µg/mL (≈ 6.16 µM) | MIC (Klebsiella pneumoniae [7]): 128 µg/mL (≈ 197 µM) | MIC (Citrobacter freundii): 128 µg/mL (≈ 197 µM) | MIC (Enterococcus faecalis [8]): 4 µg/mL (≈ 6.16 µM) | MIC (Enterococcus faecium [9]): 4 µg/mL (≈ 6.16 µM) | MIC [10]: 1 µg/mL (≈ 1.54 µM) | MIC (Providencia rettgeri): > 128 µg/mL | MIC (Staphylococcus aureus [11]): 2 µg/mL (≈ 3.08 µM) | MIC (Klebsiella pneumoniae [12]): 128 µg/mL (≈ 197 µM) | CC50 at 48 h [13]: 59.2 µg/mL (≈ 91.2 µM) | MIC (Staphylococcus aureus [14]): 2 µg/mL (≈ 3.08 µM) | MIC (Enterobacter cloacae): 128 µg/mL (≈ 197 µM) | MIC (Escherichia coli [15]): 128 µg/mL (≈ 197 µM) | MIC (Serratia marcescens): 128 µg/mL (≈ 197 µM) | MIC (Proteus vulgaris): 128 µg/mL (≈ 197 µM) | MIC (Salmonella typhi): 64 µg/mL (≈ 98.6 µM) | MIC (Staphylococcus aureus [16]): 2 µg/mL (≈ 3.08 µM) | MIC (Enterococcus faecium [17]): 8 µg/mL (≈ 12.3 µM) | MIC (Staphylococcus aureus [18]): 4 µg/mL (≈ 6.16 µM) | MIC (Proteus mirabilis): > 128 µg/mL | MIC (Escherichia coli [19]): 128 µg/mL (≈ 197 µM) | MIC (Escherichia coli [20]): 128 µg/mL (≈ 197 µM) | MIC [21]: 2 µg/mL (≈ 3.08 µM) | MIC (Pseudomonas aeruginosa [22]): > 128 µg/mL | MIC (Pseudomonas aeruginosa [23]): > 128 µg/mL | MIC (Morganella morganii): 64 µg/mL (≈ 98.6 µM) | MIC (Klebsiella pneumoniae [24]): 128 µg/mL (≈ 197 µM) | MIC (Escherichia coli [25]): 64 µg/mL (≈ 98.6 µM) | MIC (Enterococcus faecalis [26]): 8 µg/mL (≈ 12.3 µM) | MIC (Klebsiella aerogenes): 128 µg/mL (≈ 197 µM) | MIC (Enterococcus faecalis [27]): 4 µg/mL (≈ 6.16 µM) | MIC (Enterococcus faecium [28]): 2 µg/mL (≈ 3.08 µM) | MIC (Klebsiella pneumoniae [29]): > 128 µg/mL

CC1CC(C)CN(C(=N)c2ccc3cc(-c4ccc(Oc5ccc(-c6cc7ccc(C(=N)N8CC(C)CC(C)C8)cc7[nH]6)cc5)cc4)[nH]c3c2)C1 (centres undefined)
MIC [1]: 16 µg/mL (≈ 23.6 µM) | MIC (Pseudomonas aeruginosa [2]): > 128 µg/mL | MIC [3]: > 128 µg/mL | MIC (Klebsiella pneumoniae [4]): > 128 µg/mL | MIC (Staphylococcus aureus [5]): 64 µg/mL (≈ 94.5 µM) | MIC (Enterococcus faecalis [6]): 64 µg/mL (≈ 94.5 µM) | MIC (Klebsiella pneumoniae [7]): > 128 µg/mL | MIC (Citrobacter freundii): > 128 µg/mL | MIC (Enterococcus faecalis [8]): 64 µg/mL (≈ 94.5 µM) | MIC (Enterococcus faecium [9]): > 128 µg/mL | MIC [10]: 16 µg/mL (≈ 23.6 µM) | MIC (Providencia rettgeri): > 128 µg/mL | MIC (Staphylococcus aureus [11]): 16 µg/mL (≈ 23.6 µM) | MIC (Klebsiella pneumoniae [12]): > 128 µg/mL | CC50 at 48 h [13]: 2.6 µg/mL (≈ 3.84 µM) | MIC (Staphylococcus aureus [14]): 64 µg/mL (≈ 94.5 µM) | MIC (Enterobacter cloacae): > 128 µg/mL | MIC (Escherichia coli [15]): > 128 µg/mL | MIC (Serratia marcescens): > 128 µg/mL | MIC (Proteus vulgaris): > 128 µg/mL | MIC (Salmonella typhi): > 128 µg/mL | MIC (Staphylococcus aureus [16]): 64 µg/mL (≈ 94.5 µM) | MIC (Enterococcus faecium [17]): 128 µg/mL (≈ 189 µM) | MIC (Staphylococcus aureus [18]): 64 µg/mL (≈ 94.5 µM) | MIC (Proteus mirabilis): > 128 µg/mL | MIC (Escherichia coli [19]): > 128 µg/mL | MIC (Escherichia coli [20]): > 128 µg/mL | MIC [21]: 64 µg/mL (≈ 94.5 µM) | MIC (Pseudomonas aeruginosa [22]): > 128 µg/mL | MIC (Pseudomonas aeruginosa [23]): > 128 µg/mL | MIC (Morganella morganii): > 128 µg/mL | MIC (Klebsiella pneumoniae [24]): > 128 µg/mL | MIC (Escherichia coli [25]): > 128 µg/mL | MIC (Enterococcus faecalis [26]): 64 µg/mL (≈ 94.5 µM) | MIC (Klebsiella aerogenes): > 128 µg/mL | MIC (Enterococcus faecalis [27]): 128 µg/mL (≈ 189 µM) | MIC (Enterococcus faecium [28]): 128 µg/mL (≈ 189 µM) | MIC (Klebsiella pneumoniae [29]): > 128 µg/mL
